A short description of series [1]: refractive index (Na D-line) (dimensionless). Particulars: 101.33 kPa, Liquid.
The conditions of series [2]: 101.33 kPa, Liquid.

± gives the expanded uncertainty stated by the source.

Usually refractive index stands for the speed of light in vacuum divided by its phase velocity in the sample. As usually defined, the mass density is mass per unit of volume. As usually defined, the viscosity is the internal friction of a fluid under shear.

On to `CCOC=O` [ethyl methanoate], for which the refractive index in series [1] (303.15 K) is 1.3552 ± 0.0032; in series [1] (313.15 K), 1.3549 ± 0.0032. In addition, the mass density in series [2] (303.15 K) amounted to 908.1 ± 2.1 kg/m3; in series [2] (313.15 K), 894.9 ± 2.2 kg/m3. For the same compound, the viscosity is given as 0.366 ± 0.011 mPa·s in series [2] (303.15 K) and 0.339 ± 0.011 mPa·s in series [2] (313.15 K).
`CCc1ccccc1` [ethylbenzene]: the refractive index stood at 1.491 ± 0.0025 in series [1] (303.15 K) and 1.4891 ± 0.0025 in series [1] (313.15 K). The mass density is 857.6 ± 1.8 kg/m3 in series [2] (303.15 K) and 849.2 ± 2 kg/m3 in series [2] (313.15 K). In addition, the results for the viscosity in series [2] (303.15 K) and in series [2] (313.15 K) were 0.597 ± 0.016 mPa·s and 0.538 ± 0.015 mPa·s, respectively.
